Source: patent US20050163815A1, “Use of plant materials as a terrestrial molluscicidal and/or molloscrepellant agent” (priority 2002, published 2005)

System: Deroceras reticulatum
Experiment: Laboratory terraria barrier test on blotting paper (winter wheat seed hollowing, slug mortality)
Format: in vivo
Conditions: for slug mortality: barrier on blotting paper
Description: Plastic trays (0.07 m^2) were lined with unbleached blotting paper and saturated with de-ionised water. Three groups of eight winter wheat seeds were placed into each tray and each group surrounded with approximately 1-2 g of test material, forming a barrier with approximately 1 cm diameter. Four slugs (Deroceras reticulatum) pre-starved for 24-48 hours were introduced to the trays. The tests were performed under controlled conditions (12 hours light 15° C.: 12 hours dark 15° C., 90% humidity). Five replicates were prepared per condition.
The trays were observed daily, for seven days, for seed hollowing and mortality. After the seven days, the slugs were replaced with naive slugs and the test run for a further seven days. Mortality was indicated by failure to respond to 12-volt D.C. stimuli.
Note: i) In all the experiments, a negative control was prepared consisting of slugs only, sawdust only, or “alcoholic” sawdust. ii) Metaldehyde (4%) was used as a positive control, to compare the toxicity properties of the 100% plant raw materials, rather than as a physical barrier.
The method is identical to that used in Example 1 above.

CC1OC(C)OC(C)OC(C)O1 (stereo not drawn) [metaldehyde (4%), metaldehyde]
seed hollowing (barrier around winter wheat seeds on blotting paper, first seven days (days 1 to 7)): 1% | slug mortality (days 8 to 14): 100% | slug mortality (first seven days): 90%
